Measured values published in ChEMBL document CHEMBL2169792, “Synthesis of new 4-thiazolidinone-, pyrazoline-, and isatin-based conjugates with promising antitumor activity” (J Med Chem, 2012).
Activity calls are given as the source filed them. The calls are words filed in the database; no cut-off is given here.

Legend:
[1] = test system: HCT-116; experiment: Cytotoxicity against human HCT116 cells after 48 hrs by SRB assay; assay type: functional; conditions: HCT-116, 48 h
[2] = Cytotoxicity against human non-small cell lung cancer cells after 48 hrs by SRB assay; assay type: functional; conditions: Cancer cell lines
[3] = test system: M14; experiment: Cytotoxicity against human M14 cells after 48 hrs by SRB assay; assay type: functional; conditions: M14, 48 h
[4] = Cytotoxicity against human leukemia cells after 48 hrs by SRB assay; assay type: functional; conditions: Leukemia cell
[5] = test system: SNB-19; experiment: Cytotoxicity against human SNB19 cells after 48 hrs by SRB assay; assay type: functional; conditions: SNB-19, 48 h
[6] = test system: OVCAR-3; experiment: Cytotoxicity against human OVCAR3 cells after 48 hrs by SRB assay; assay type: functional; conditions: OVCAR-3, 48 h
[7] = test system: LOX IMVI; experiment: Cytotoxicity against human LOXIMVI cells after 48 hrs by SRB assay; assay type: functional
[8] = test system: A498; experiment: Cytotoxicity against human A498 cells after 48 hrs by SRB assay; assay type: functional; conditions: A498, 48 h
[9] = Toxicity in mouse; assay type: organism-based; conditions: in vivo
[10] = test system: UO-31; experiment: Cytotoxicity against human UO31 cells after 48 hrs by SRB assay; assay type: functional; conditions: UO-31, 48 h
[11] = test system: K562; experiment: Cytotoxicity against human K562 cells after 48 hrs by SRB assay; assay type: functional; conditions: K562, 48 h
[12] = test system: NCI-H460; experiment: Cytotoxicity against human NCI-H460 cells after 48 hrs by SRB assay; assay type: functional; conditions: NCI-H460, 48 h
[13] = test system: SNB-75; experiment: Cytotoxicity against human SNB75 cells after 48 hrs by SRB assay; assay type: functional; conditions: SNB-75, 48 h
[14] = test system: ACHN; experiment: Cytotoxicity against human ACHN cells after 48 hrs by SRB assay; assay type: functional
[15] = test system: NCI-H23; experiment: Cytotoxicity against human NCI-H23 cells after 48 hrs by SRB assay; assay type: functional; conditions: NCI-H23, 48 h
[16] = test system: TK-10; experiment: Cytotoxicity against human TK10 cells after 48 hrs by SRB assay; assay type: functional; conditions: TK-10, 48 h
[17] = test system: OVCAR-4; experiment: Cytotoxicity against human OVCAR4 cells after 48 hrs by SRB assay; assay type: functional; conditions: OVCAR-4, 48 h
[18] = test system: MDA-MB-231; experiment: Cytotoxicity against human MDA-MB-231 cells after 48 hrs by SRB assay; assay type: functional; conditions: MDA-MB-231, 48 h
[19] = Cytotoxicity against human prostate cancer cells after 48 hrs by SRB assay; assay type: functional; conditions: Cancer cell lines
[20] = test system: SK-MEL-5; experiment: Cytotoxicity against human SK-MEL-5 cells after 48 hrs by SRB assay; assay type: functional; conditions: SK-MEL-5, 48 h, read-out: LC50 (the source's name)
[21] = test system: UACC-62; experiment: Cytotoxicity against human UACC62 cells after 48 hrs by SRB assay; assay type: functional; conditions: UACC-62, 48 h
[22] = test system: BT-549; experiment: Cytotoxicity against human BT549 cells after 48 hrs by SRB assay; assay type: functional; conditions: BT-549, 48 h
[23] = Cytotoxicity against human melanoma cells after 48 hrs by SRB assay; assay type: functional; conditions: Melanoma cell
[24] = test system: HCC 2998; experiment: Cytotoxicity against human HCC2998 cells after 48 hrs by SRB assay; assay type: functional; conditions: HCC 2998, 48 h
[25] = test system: U-251; experiment: Cytotoxicity against human U251 cells after 48 hrs by SRB assay; assay type: functional; conditions: U-251, 48 h
[26] = test system: Mus musculus; experiment: Antitumor activity in ip dosed athymic nude mouse hollow fiber model assessed as reduction of viable cell mass; assay type: functional, organism-based
[27] = test system: KM12; experiment: Cytotoxicity against human KM12 cells after 48 hrs by SRB assay; assay type: functional; conditions: KM12, 48 h
[28] = test system: HOP-62; experiment: Cytotoxicity against human HOP62 cells after 48 hrs by SRB assay; assay type: functional; conditions: HOP-62, 48 h
[29] = test system: A549; experiment: Cytotoxicity against human A549 cells after 48 hrs by SRB assay; assay type: functional; conditions: A549, 48 h
[30] = test system: SR; experiment: Cytotoxicity against human SR cells after 48 hrs by SRB assay; assay type: functional
[31] = Cytotoxicity against human breast cancer cells after 48 hrs by SRB assay; assay type: functional; conditions: Cancer cell lines
[32] = test system: SK-MEL-28; experiment: Cytotoxicity against human SK-MEL-28 cells after 48 hrs by SRB assay; assay type: functional; conditions: SK-MEL-28, 48 h
[33] = test system: SF-295; experiment: Cytotoxicity against human SF295 cells after 48 hrs by SRB assay; assay type: functional; conditions: SF-295, 48 h
[34] = test system: CAKI-1; experiment: Cytotoxicity against human CAKI-1 cells after 48 hrs by SRB assay; assay type: functional; conditions: CAKI-1, 48 h
[35] = test system: HCT-15; experiment: Cytotoxicity against human HCT15 cells after 48 hrs by SRB assay; assay type: functional; conditions: HCT-15, 48 h
[36] = Cytotoxicity against human colon cancer cells after 48 hrs by SRB assay; assay type: functional; conditions: Cancer cell lines
[37] = test system: 786-0; experiment: Cytotoxicity against human 786-0 cells after 48 hrs by SRB assay; assay type: functional; conditions: 786-0, 48 h
[38] = read-out: LC50 (the source's name)

With COc1ccc(C2CC(c3ccc4ccccc4c3)=NN2C2=NC(=O)/C(=C3\C(=O)Nc4ccc(Br)cc43)S2)cc1 (stereo not drawn) the GI50 [1] was 18 nM, the TGI [1] was 33.5 nM and the CC50 [1, 38] was greater than 62.4 nM. It also gave a GI50 [2] of 54 nM, a TGI [2] of 220 nM and a CC50 [2, 38] of 41.5 µM. The GI50 [3] was 24.5 nM, the TGI [3] was 59.3 nM and the CC50 [3, 38] was greater than 210 nM. The GI50 [4] was 130 nM, the TGI [4] was 3.37 µM and the CC50 [4, 38] was 87.8 µM. The GI50 [5] was 38.5 nM, the TGI [5] was 411 nM and the CC50 [5, 38] was 8.98 µM. The GI50 [6] was 21.6 nM, the TGI [6] was 45 nM and the CC50 [6, 38] was 93.7 nM. It also gave a GI50 [7] of 24.3 nM, a TGI [7] of 58.9 nM and a CC50 [7, 38] of 249 nM. For the same compound, the GI50 [8] was 25.1 nM, the TGI [8] was 78.6 nM and the CC50 [8, 38] was 316 nM. The MTD [9] was greater than 400 mg/kg, the GI50 [10] was 57.8 nM and the GI50 [11] was 37 nM. The TGI [11] was greater than 12.4 µM, the CC50 [11, 38] was greater than 100 µM and the GI50 [12] was 33.1 nM. For the same compound, the TGI [12] was 112 nM, the CC50 [12, 38] was 5.45 µM and the GI50 [13] was 15.9 nM. For the same compound, the TGI [13] was 34.3 nM, the CC50 [13, 38] was greater than 69.8 nM and the GI50 [14] was 26.7 nM. The TGI [14] was 64.6 nM, the CC50 [14, 38] was greater than 32.3 µM and the GI50 [15] was 24.6 nM. It also gave a TGI [15] of 56.7 nM, a CC50 [15, 38] of 291 nM and a GI50 [16] of 170 nM. For the same compound, the TGI [16] was 522 nM, the CC50 [16, 38] was greater than 100 µM and the GI50 [17] was 32.6 nM. The TGI [17] was greater than 111 nM, the CC50 [17, 38] was greater than 100 µM and the GI50 [18] was 14.5 nM. It also gave a TGI [18] of 62.7 nM, a CC50 [18, 38] of 349 nM and a GI50 [19] of 59 nM. It also gave an LC50 [19] of 13.8 µM, a TGI [19] of 510 nM and a CC50 [20] of 341 nM. For the same compound, the GI50 [21] was 54.7 nM, the TGI [21] was 261 nM and the CC50 [21, 38] was 1190 nM. For the same compound, the GI50 [22] was 553 nM, the TGI [22] was 7.74 µM and the CC50 [22, 38] was 35.1 µM. It also gave a GI50 [23] of 69 nM, a TGI [23] of 190 nM and a CC50 [23, 38] of 3.52 µM. It also gave a GI50 [24] of 25.2 nM, a TGI [24] of 65.8 nM and a CC50 [24, 38] of 272 nM. It also gave a GI50 [25] of 24.6 nM, a TGI [25] of 57.8 nM and a CC50 [25, 38] of 289 nM. The Activity [26] was “inactive”, the GI50 [27] was 23.1 nM and the TGI [27] was 53.5 nM. For the same compound, the CC50 [27, 38] was 231 nM, the GI50 [28] was 22 nM and the TGI [28] was 49.8 nM. For the same compound, the CC50 [28, 38] was greater than 157 nM, the GI50 [29] was 24.7 nM and the TGI [29] was 69.5 nM. It also gave a CC50 [29, 38] of 25.7 µM, a GI50 [30] of 28.9 nM and a TGI [30] of 130 nM. The CC50 [30, 38] was greater than 100 µM, the GI50 [31] was 61 nM and the LC50 (concentration causing 50% net cell kill) [31] was 2650 nM. The TGI [31] was 990 nM, the GI50 [32] was 21.8 nM and the TGI [32] was 51.5 nM. For the same compound, the CC50 [32, 38] was greater than 205 nM, the GI50 [33] was 26.5 nM and the TGI [33] was 78.6 nM. The CC50 [33, 38] was 1170 nM, the GI50 [34] was 96.5 nM and the TGI [34] was 608 nM. For the same compound, the CC50 [34, 38] was greater than 100 µM, the GI50 [35] was 62.9 nM and the TGI [35] was 325 nM. For the same compound, the CC50 [35, 38] was greater than 2450 nM, the GI50 [36] was 50 nM and the LC50 (concentration lethal to 50% of cells) [36] was 1150 nM. It also gave a TGI [36] of 140 nM, a GI50 [37] of 19.4 nM and a TGI [37] of 38.7 nM. For the same compound, the CC50 [37, 38] was greater than 77.2 nM.
